{
  "source": "patent US11850266B2",
  "about": "“Cardiomyocytes and compositions and methods for producing the same” (President and Fellows of Harvard College, priority 2019, dated 2023)",
  "assay_type_in_all_cases": "cell-based, human",
  "key": {"[1]": {"test_system": "iPSC-derived cardiomyocytes", "assay": "Spontaneous beating rate of cardiomyocytes", "details": "FIG. 29", "description": "(§1) The BJRiPS cell line was used to generate preliminary data. BJRiPS cells were differentiated into cardiomyocytes according to previously published protocols (6). After the onset of beating (around day 10), cardiomyocytes were treated with vehicle (DMSO) or different concentrations of rapamycin, Torin1, or Torin2 for different time periods. Beating rate was counted manually. Some cells were harvested after 5-7 days of treatment for flow cytometry analysis. Other cells were harvested after 7 days of treatment for qPCR."}, "[2]": {"test_system": "BJRiPS-derived cardiomyocytes", "assay": "Example 3 preliminary qPCR of maturation genes in BJRiPS-derived cardiomyocytes", "details": "preliminary data, after differentiation", "description": "as §1"}, "[3]": {"test_system": "iPSC-derived cardiomyocytes", "assay": "Calcium transients (Fluo-4 AM) analysis with Vala Kinetic Image Cytometer", "details": "isoproterenol 1 μM, FIG. 14", "description": "To perform calcium transients analysis, 50 ul of 10 ug/ml Hoeschst 33258 and 5 μM Fluo-4 AM was added to each well of a 96 well plate and incubated for 10 minutes at 37 degrees. Media was replaced with RPMI without phenol red supplemented with 1:100 Oxyfluor and 10 uM sodium lactate. Isoproterenol (1 μM) was added to the media for isoproterenol experiments. Pacing protocol was 5 seconds delay without pacing followed by 5 seconds pacing at 1 Hz and 5 seconds imaging without pacing. Imaging was performed using the Vala Kinetic Image Cytometer at 30 fps with 33.30 ms exposure at 14.25 intensity. Stimulation pulse was 5 ms with 15V voltage. Data was collected by CyteSeer analysis program."}, "[4]": {"test_system": "TNNT2+ iPSC-derived cardiomyocytes", "assay": "Cell cycle analysis by flow cytometry (Hoechst 33342 / pyronin Y) of TNNT2+ cardiomyocytes", "description": "(§2) To prepare for differentiation, iPSCs were plated at a density between 20,000 to 80,000 cells (depending on the cell line) per well of a 12-well plate at four days prior to onset of differentiation. Cells were differentiated according to the protocol previously described by Lian et al. with some modifications (FIG. 1A) (1). Basal media was changed from StemFlex to RPMI/B27 on day 0 of differentiation. The GSK3 inhibitor, CHIR99021 (6 μM), was added for 48 hours from day 0 to day 2 of differentiation when cells were approximately 70-80% confluent. The Wnt antagonist IWP4 (5 μM) was added from days 2 to 4 of differentiation. Insulin (10 μg/ml) was added to the media starting on day 7 of differentiation, and media was changed every 2-3 days. In general, higher purity (TNNT2+) cardiomyocytes were observed when beating initiated prior to day 10 of differentiation, therefore only batches with onset of beating between days 7-10 of differentiation were included in this study. Beating cardiomyocytes were treated with Torin1 (200 nM, unless otherwise noted) or vehicle (0.02% dimethylsulfoxide (DMSO)) beginning at ˜2 days after onset of beating for 7 days (media changed with fresh Torin1 or DMSO every 2-3 days), unless otherwise noted. After Torin1 treatment, media was switched back to RPMI/B27/insulin and maintained with media change every 2-3 days until endpoint assay. In a few assays, fatty acids were added in the form of chemically defined lipids (Gibco) diluted 1:1000 simultaneous with Torin1 treatment. In some other assays, fetal bovine serum (10% FBS) was added to cells after completion of Torin treatment for 2-4 days.\nCells were dissociated and 5×10^5 to 1×10^6 cells were used per condition. For cell cycle analysis, 5×10^5 cells per condition were fixed in 70% cold ethanol for at least 2 hours to overnight at −20 degrees C. Cells were stained first with AlexaFluor 647-TNNT2 in Permeabilization Buffer (Thermo) then with Hoechst 33342 (2 μg/ml) and pyronin Y (4 μg/ml) for 20 minutes to distinguish between cells in G0, G1, and S-G2-M phases. For other stains, cells were fixed in eBioscience Intracellular Fixation buffer for 30 minutes followed washing twice in eBioscience Permeabilization Buffer and stained with the appropriate primary antibody (Table 2) in eBioscience FACS Staining buffer for 30-60 minutes. If a secondary antibody was used, cells were incubated with the appropriate secondary antibody (Table 2) for 30-60 minutes. The geometric mean fluorescence intensity (MFI) was quantified for TNNT2 and Kir2.1 antibodies. Data were acquired via a BD LSRII instrument and analyzed using FlowJo software."}, "[5]": {"test_system": "iPSC-derived cardiomyocytes", "assay": "Western analysis of protein expression in iPSC-derived cardiomyocytes", "description": "as §2\nCells were lysed with lysis buffer (1% Triton X, 0.35% Na-deoxycholate, 1 mM EDTA, 1% protease inhibitor cocktail (Sigma), 1% phosphatase inhibitor cocktail 2 (Sigma), 1% phosphatase inhibitor cocktail 3 (Sigma), 1 mM phenylmethylsulfonyl fluoride (PMSF)) and total protein was measured with the Pierce BCA Protein Assay Kit. Samples with equal total protein quantities (prepared in Laemmli Sample Buffer (Bio-Rad)) were loaded into a Mini-Protean TGX Precast Gel (Bio-Rad) and electrophoresed for 1 hour at 100 V before transfer to a PVDF membrane using the Trans-Blot Turbo Transfer System (Bio-Rad). The Precision Plus Protein Dual Color Standards molecular weight ladder was used to estimate molecular weight of detected bands (Bio-Rad). Membranes were blocked with 5% milk or bovine serum albumin then incubated with the primary antibody (Table 2) overnight at 4 degrees C. followed by incubation with the horseradish peroxidase-conjugated secondary antibody (Table 2) for 1 hour at room temperature. The Amersham ECL Western Blotting Detection kit was used to detect the protein signal by chemiluminescence, and band densities were quantified using ImageJ software (NIH)."}, "[6]": {"details": "pifithrin-α 10 μM with Torin1 200 nM, 7 days, FIG. 5B"}},
  "data": [
    {"smiles": "Nc1ccc(-c2ccc3ncc4ccc(=O)n(-c5cccc(C(F)(F)F)c5)c4c3c2)cn1", "note": "[Torin2]", "values": [
      {"measurement": "beating rate of cardiomyocytes", "setting": "[1]; Torin1 10, 50, 200 nM, Torin2 200 nM, from day 11 for 4-5 days", "result": "decreased the beating rate"},
      {"measurement": "beating rates at 1 week", "setting": "[1]; dose-dependent, BJRiPS-CMs", "result": "significantly decreased beating rates"},
      {"measurement": "RNA expression of markers of maturation including TNNI3 and KCNJ2", "setting": "[2]", "result": "increased RNA expression"}
    ]},
    {"smiles": "CC(C)NCC(O)c1ccc(O)c(O)c1", "note": "(stereo not shown) [isoproterenol]", "values": [
      {"measurement": "calcium peak rise time, peak decay time and FWHM time with isoproterenol stimulation", "setting": "[3]", "result": "further decreases"}
    ]},
    {"smiles": "COc1ccc(C2=N[C@@H](c3ccc(Cl)cc3)[C@@H](c3ccc(Cl)cc3)N2C(=O)N2CCNC(=O)C2)c(OC(C)C)c1", "note": "[nutlin-3a]", "values": [
      {"measurement": "percentage of quiescent (G0) TNNT2+ cardiomyocytes versus control", "setting": "[4]; nutlin-3a 10 μM 24 hours, Torin1 200 nM 7 days, or both, BJRiPS-CMs, FIG. 6B", "result": "increased the percentage of quiescent (G0) TNNT2+ cardiomyocytes"},
      {"measurement": "percentage of TNNT2+ cardiomyocytes in G1 phase versus control", "setting": "[4]; nutlin-3a 10 μM 24 hours, Torin1 200 nM 7 days, or both, FIG. 6B", "result": "decreased the percentage of TNNT2+ cardiomyocytes in G1 phase"},
      {"measurement": "p53 and TNNI3 protein expression", "setting": "[5]; nutlin-3a 10 μM 24 hours, independently of Torin1, FIG. 6C", "result": "increased p53 and TNNI3 protein expression"}
    ]},
    {"smiles": "Cc1ccc(C(=O)Cn2c3c(sc2=N)CCCC3)cc1", "note": "[pifithrin-α]", "values": [
      {"measurement": "percentage of cardiomyocytes in the cell cycle (G1, S/G2/M) versus Torin1 alone", "setting": "[4]; [6]", "result": "increased the percentage of cardiomyocytes in the cell cycle"},
      {"measurement": "percentage of quiescent (G0) cardiomyocytes versus Torin1 alone", "setting": "[4]; [6]", "result": "decreased the percentage of quiescent (G0) cardiomyocytes"},
      {"measurement": "Torin1-induced increase in p53 and TNNI3 protein", "setting": "[5]; pifithrin-α 10 μM with Torin1 200 nM, 7 days, FIGS. 5C-5D", "result": "inhibited the Torin1-induced increase in both p53 and TNNI3"}
    ]}
  ]
}
